PubChem BioAssay AID2151 (NMMLSC, 2009)
Active and inactive are the calls of the source. How the calls were made is not given here.

biological target: MEK5 PB1 domain binding to MEKK2 (MAP3K2) mutant PB1, human; assay: blockers of MEK5 association with mutant MEKK2 – biochemical, bead multiplex flow cytometry, SAR follow-up (AID 2151); conditions: Bead-based multiplex flow cytometry

EC50, inactive:
c1ccc(-c2nnc3sc(C4CCCCCC4)nn23)nc1 > 30 µM
c1ccc(-c2nnc3sc(C4CCCCC4)nn23)nc1 > 30 µM
COc1ccc(-c2nn3c(-c4ccccn4)nnc3s2)cc1OC > 30 µM
c1ccc(-c2nnc3sc(-c4ccc[nH]4)nn23)nc1 > 30 µM
c1coc(-c2nnc3sc(C4CCCCC4)nn23)c1 > 30 µM
CCOc1cccc(-c2nn3c(-c4ccco4)nnc3s2)c1 > 30 µM
CCOc1cccc(-c2nn3c(-c4cccs4)nnc3s2)c1 > 30 µM
COc1cc([N+](=O)[O-])ccc1-c1nn2c(-c3ccco3)nnc2s1 > 30 µM
COc1cccc(-c2nn3c(-c4ccccn4)nnc3s2)c1 > 30 µM
COc1cc([N+](=O)[O-])ccc1-c1nn2c(-c3ccccn3)nnc2s1 > 30 µM
c1c[nH]c(-c2nn3c(-c4ccco4)nnc3s2)c1 > 30 µM
c1coc(-c2nnc3sc(C4CCCCCC4)nn23)c1 > 30 µM
c1csc(Cc2nn3c(-c4ccncc4)nnc3s2)c1 > 30 µM
